What was measured:
Assay type in all cases: in vivo
[1] = test system: barnyardgrass (Echinochloa crus-galli); assay: Test A pre-/postemergence plant response
Summary of the method: (§1)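 Visual injury rating on a 0–100 scale (0 = no effect, 100 = complete control) was made versus untreated controls after about ten days in the greenhouse. Compounds, formulated in a non-phytotoxic solvent mix containing surfactant, were sprayed preemergence onto loam/sand soil and postemergence onto one- to two-leaf plants.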

corn (Zea mays) = assay: Test A pre-/postemergence plant response
Summary of the method: as §1

[2] = test system: giant foxtail (Setaria faberii); assay: Test A pre-/postemergence plant response
Summary of the method: as §1

[3] = test system: large crabgrass (Digitaria sanguinalis); assay: Test A pre-/postemergence plant response
Summary of the method: as §1

[4] = test system: morningglory (Ipomoea spp.); assay: Test A pre-/postemergence plant response
Summary of the method: as §1

[5] = test system: pigweed (Amaranthus retroflexus); assay: Test A pre-/postemergence plant response
Summary of the method: as §1

[6] = test system: velvetleaf (Abutilon theophrasti); assay: Test A pre-/postemergence plant response
Summary of the method: as §1

[7] = test system: wheat (Triticum aestivum); assay: Test A pre-/postemergence plant response
Summary of the method: as §1

[8] = test system: barnyardgrass (Echinochloa crus-galli); assay: Test B flooded paddy test; conditions: for Plant response rating, Flood, Barnyardgrass: 250 g ai/ha, flooded paddy test, visual rating on 0 to 100 scale (0 no effect, 100 complete control) after 13 to 15 days; for Plant response rating, Barnyardgrass: Flood (flooded paddy test), 13 to 15 days; for Barnyardgrass plant response rating: Flood, scale 0 to 100 (0 no effect, 100 complete control)
Summary of the method: (§2)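 Post-flood paddy application: compounds are introduced into water 3 cm deep over the soil, reaching plants at the 2-leaf stage. The water level is maintained, and after 13–15 days under greenhouse conditions, response is judged by eye relative to controls, where 100 means complete control.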

[9] = test system: ducksalad (Heteranthera limosa); assay: Test B flooded paddy test; conditions: for Plant response rating, Flood, Ducksalad: 250 g ai/ha, flooded paddy test, visual rating on 0 to 100 scale (0 no effect, 100 complete control) after 13 to 15 days; for Plant response rating, Ducksalad: Flood (flooded paddy test), 13 to 15 days; for Ducksalad plant response rating: Flood, scale 0 to 100 (0 no effect, 100 complete control)
Summary of the method: as §2

rice (Oryza sativa) = assay: Test B flooded paddy test; conditions: for Plant response rating, Flood, Rice: 250 g ai/ha, flooded paddy test, visual rating on 0 to 100 scale (0 no effect, 100 complete control) after 13 to 15 days; for Plant response rating, Rice: Flood (flooded paddy test), 13 to 15 days; for Rice plant response rating: Flood, scale 0 to 100 (0 no effect, 100 complete control)
Summary of the method: as §2

[10] = test system: umbrella sedge (Cyperus difformis); assay: Test B flooded paddy test; conditions: for Plant response rating, Flood, Sedge, Umbrella: 250 g ai/ha, flooded paddy test, visual rating on 0 to 100 scale (0 no effect, 100 complete control) after 13 to 15 days; for Plant response rating, Sedge, Umbrella: Flood (flooded paddy test), 13 to 15 days; for Sedge, Umbrella plant response rating: Flood, scale 0 to 100 (0 no effect, 100 complete control)
Summary of the method: as §2

[11] = Postemergence, 125 g ai/ha, 0 to 100 scale where 0 is no effect and 100 is complete control
[12] = Postemergence, 500 g ai/ha, visual injury, 0 to 100 scale (0 no effect, 100 complete control), approx. ten days
[13] = Preemergence, 125 g ai/ha, 0 to 100 scale, 0 = no effect, 100 = complete control
[14] = Preemergence, 500 g ai/ha, 0 to 100 scale, 0 = no effect, 100 = complete control
[15] = 62 g ai/ha, scale of 0 to 100 where 0 is no effect and 100 is complete control
[16] = 125 g ai/ha, scale 0 to 100, 0 is no effect, 100 is complete control
[17] = Postemergence, 500 g ai/ha, 0 to 100 scale, 0 = no effect, 100 = complete control, approx. ten days
[18] = Preemergence, 500 g ai/ha, visual injury, 0 to 100 scale (0 no effect, 100 complete control), approx. ten days
[19] = Postemergence, 125 g ai/ha, visual injury, 0 to 100 scale (0 no effect, 100 complete control), approx. ten days
[20] = 31 g ai/ha, scale of 0 to 100 where 0 is no effect and 100 is complete control

CCc1ccc(-n2c(-c3cc(F)cc(F)c3)ncc(C(=O)C3=C(O)CCCC3=O)c2=O)cc1 [Compound 158]
75: Plant response rating, Ducksalad [9, 15]
70: Plant response rating, Foxtail, Giant [2, 11] | Plant response rating, Crabgrass, Large [3, 11] | Plant response rating, Crabgrass, Large [3, 13] | Plant response rating, Morningglory [4, 11] | Sedge, Umbrella plant response rating ([10]; 31 g ai/ha)
50: Corn plant response rating (corn (Zea mays); [12]) | Plant response rating, Velvetleaf [6, 13] | Wheat plant response rating [7, 12] | Ducksalad plant response rating ([9]; 31 g ai/ha)
30: Plant response rating, Rice (rice (Oryza sativa); [15])
20: Plant response rating, Barnyardgrass [1, 13] | Plant response rating, Corn (corn (Zea mays); [14]) | Plant response rating, Barnyardgrass [8, 15] | Plant response rating, Barnyardgrass [8, 16] | Barnyardgrass plant response rating ([8]; 31 g ai/ha) | Rice plant response rating (rice (Oryza sativa); 31 g ai/ha)
10: Plant response rating, Corn (corn (Zea mays); [11]) | Plant response rating, Foxtail, Giant [2, 13] | Plant response rating, Wheat [7, 14]
100: Crabgrass, Large plant response rating [3, 12] | Plant response rating, Crabgrass, Large [3, 14] | Morningglory plant response rating [4, 12] | Plant response rating, Pigweed [5, 11] | Pigweed plant response rating [5, 12] | Plant response rating, Pigweed [5, 13] | Plant response rating, Pigweed [5, 14] | Plant response rating, Velvetleaf [6, 11] | Velvetleaf plant response rating [6, 12] | Plant response rating, Flood, Ducksalad [9] | Plant response rating, Ducksalad [9, 16] | Plant response rating, Flood, Sedge, Umbrella [10] | Plant response rating, Sedge, Umbrella [10, 16]
40: Plant response rating, Rice (rice (Oryza sativa); [16])
85: Plant response rating, Flood, Rice (rice (Oryza sativa)) | Plant response rating, Sedge, Umbrella [10, 15]
60: Plant response rating, Flood, Barnyardgrass [8]
0: Plant response rating, Corn (corn (Zea mays); [13]) | Plant response rating, Morningglory [4, 13] | Plant response rating, Wheat [7, 11] | Plant response rating, Wheat [7, 13]
90: Plant response rating, Barnyardgrass [1, 11] | Barnyardgrass plant response rating [1, 12] | Foxtail, Giant plant response rating [2, 12]
80: Plant response rating, Barnyardgrass [1, 14] | Plant response rating, Foxtail, Giant [2, 14] | Plant response rating, Morningglory [4, 14] | Plant response rating, Velvetleaf [6, 14]

CCCCn1c(-c2cccc(Br)c2)ncc(C(=O)C2=C(O)CCCC2=O)c1=O [Compound 138]
70: Plant response rating, Foxtail, Giant [2, 18] | Plant response rating, Crabgrass, Large [3, 11] | Plant response rating, Crabgrass, Large [3, 18] | Plant response rating, Ducksalad [9, 15] | Plant response rating, Sedge, Umbrella [10, 15]
40: Plant response rating, Crabgrass, Large [3, 13]
30: Plant response rating, Foxtail, Giant [2, 13]
25: Plant response rating, Flood, Barnyardgrass [8]
80: Plant response rating, Velvetleaf [6, 18] | Plant response rating, Flood, Ducksalad [9] | Plant response rating, Flood, Sedge, Umbrella [10]
20: Plant response rating, Barnyardgrass [1, 13] | Plant response rating, Corn (corn (Zea mays); [11]) | Plant response rating, Corn (corn (Zea mays); [17]) | Plant response rating, Corn (corn (Zea mays); [18]) | Plant response rating, Velvetleaf [6, 13] | Plant response rating, Wheat [7, 17] | Plant response rating, Wheat [7, 18]
60: Plant response rating, Foxtail, Giant [2, 11]
50: Plant response rating, Morningglory [4, 11] | Plant response rating, Pigweed [5, 13]
15: Plant response rating, Flood, Rice (rice (Oryza sativa))
0: Plant response rating, Corn (corn (Zea mays); [13]) | Plant response rating, Morningglory [4, 13] | Plant response rating, Morningglory [4, 18] | Plant response rating, Wheat [7, 11] | Plant response rating, Wheat [7, 13] | Plant response rating, Barnyardgrass [8, 15] | Plant response rating, Rice (rice (Oryza sativa); [15])
90: Plant response rating, Barnyardgrass [1, 11] | Plant response rating, Barnyardgrass [1, 17] | Plant response rating, Barnyardgrass [1, 18] | Plant response rating, Foxtail, Giant [2, 17] | Plant response rating, Crabgrass, Large [3, 17] | Plant response rating, Pigweed [5, 18]
100: Plant response rating, Morningglory [4, 17] | Plant response rating, Pigweed [5, 11] | Plant response rating, Pigweed [5, 17] | Plant response rating, Velvetleaf [6, 11] | Plant response rating, Velvetleaf [6, 17]

CCCc1ncc(C(=O)C2=C(O)CCCC2=O)c(=O)n1Cc1cccc(OC(F)(F)F)c1 [Compound 105]
50: Plant response rating, Barnyardgrass [1, 17] | Plant response rating, Foxtail, Giant [2, 18] | Plant response rating, Crabgrass, Large [3, 18]
20: Plant response rating, Barnyardgrass [1, 11] | Plant response rating, Foxtail, Giant [2, 17] | Plant response rating, Crabgrass, Large [3, 11]
70: Plant response rating, Crabgrass, Large [3, 17] | Plant response rating, Velvetleaf [6, 18]
100: Plant response rating, Pigweed [5, 17] | Plant response rating, Velvetleaf [6, 11] | Plant response rating, Velvetleaf [6, 17]
30: Plant response rating, Foxtail, Giant [2, 13] | Plant response rating, Crabgrass, Large [3, 13]
90: Plant response rating, Pigweed [5, 11] | Plant response rating, Pigweed [5, 18]
0: Plant response rating, Barnyardgrass [1, 13] | Plant response rating, Barnyardgrass [1, 18] | Plant response rating, Corn (corn (Zea mays); [11]) | Plant response rating, Corn (corn (Zea mays); [13]) | Plant response rating, Corn (corn (Zea mays); [18]) | Plant response rating, Foxtail, Giant [2, 11] | Plant response rating, Morningglory [4, 13] | Plant response rating, Velvetleaf [6, 13] | Plant response rating, Wheat [7, 11] | Plant response rating, Wheat [7, 17] | Plant response rating, Wheat [7, 13] | Plant response rating, Wheat [7, 18] | Plant response rating, Flood, Barnyardgrass [8] | Plant response rating, Barnyardgrass [8, 15] | Plant response rating, Barnyardgrass [8, 16] | Barnyardgrass plant response rating ([8]; 31 g ai/ha) | Plant response rating, Flood, Ducksalad [9] | Plant response rating, Ducksalad [9, 15] | Plant response rating, Ducksalad [9, 16] | Ducksalad plant response rating ([9]; 31 g ai/ha) | Plant response rating, Flood, Rice (rice (Oryza sativa)) | Plant response rating, Rice (rice (Oryza sativa); [15]) | Plant response rating, Rice (rice (Oryza sativa); [16]) | Rice plant response rating (rice (Oryza sativa); 31 g ai/ha) | Plant response rating, Flood, Sedge, Umbrella [10] | Plant response rating, Sedge, Umbrella [10, 15] | Plant response rating, Sedge, Umbrella [10, 16] | Sedge, Umbrella plant response rating ([10]; 31 g ai/ha)
80: Plant response rating, Morningglory [4, 17] | Plant response rating, Pigweed [5, 13]
10: Plant response rating, Corn (corn (Zea mays); [17]) | Plant response rating, Morningglory [4, 11]

CCCCCCc1ncc(C(=O)C2=C(O)CCCC2=O)c(=O)n1-c1ccccc1 [Compound 54]
10: Barnyardgrass plant response rating [1, 19] | Plant response rating, Barnyardgrass [1, 18] | Plant response rating, Corn (corn (Zea mays); [17]) | Foxtail, Giant plant response rating [2, 19]
40: Crabgrass, Large plant response rating [3, 19] | Morningglory plant response rating [4, 19] | Plant response rating, Flood, Ducksalad [9] | Plant response rating, Flood, Sedge, Umbrella [10]
0: Plant response rating, Barnyardgrass [1, 13] | Corn plant response rating (corn (Zea mays); [19]) | Plant response rating, Corn (corn (Zea mays); [13]) | Plant response rating, Corn (corn (Zea mays); [18]) | Plant response rating, Foxtail, Giant [2, 13] | Plant response rating, Foxtail, Giant [2, 18] | Plant response rating, Crabgrass, Large [3, 13] | Plant response rating, Morningglory [4, 13] | Plant response rating, Morningglory [4, 18] | Wheat plant response rating [7, 19] | Plant response rating, Wheat [7, 17] | Plant response rating, Wheat [7, 13] | Plant response rating, Wheat [7, 18] | Plant response rating, Flood, Barnyardgrass [8] | Plant response rating, Barnyardgrass [8, 20] | Plant response rating, Barnyardgrass [8, 15] | Plant response rating, Barnyardgrass [8, 16] | Plant response rating, Ducksalad [9, 20] | Plant response rating, Ducksalad [9, 15] | Plant response rating, Flood, Rice (rice (Oryza sativa)) | Plant response rating, Rice (rice (Oryza sativa); [20]) | Plant response rating, Rice (rice (Oryza sativa); [15]) | Plant response rating, Rice (rice (Oryza sativa); [16]) | Plant response rating, Sedge, Umbrella [10, 20] | Plant response rating, Sedge, Umbrella [10, 15] | Plant response rating, Sedge, Umbrella [10, 16]
100: Plant response rating, Morningglory [4, 17] | Pigweed plant response rating [5, 19] | Plant response rating, Pigweed [5, 17] | Velvetleaf plant response rating [6, 19] | Plant response rating, Velvetleaf [6, 17]
90: Plant response rating, Pigweed [5, 18]
30: Plant response rating, Crabgrass, Large [3, 18] | Plant response rating, Ducksalad [9, 16]
60: Plant response rating, Barnyardgrass [1, 17] | Plant response rating, Foxtail, Giant [2, 17] | Plant response rating, Velvetleaf [6, 13]
70: Plant response rating, Crabgrass, Large [3, 17] | Plant response rating, Velvetleaf [6, 18]
80: Plant response rating, Pigweed [5, 13]

— patent US8952024B2, “Herbicidal pyrimidone derivatives” (E I du Pont de Nemours and Company, priority 2009, dated 2015)
